Source: patent publication US9345244B2, “Plant growth regulating compounds” (Syngenta Participations AG, priority 2011, dated 2016)

system: Wheat (Triticum aestivum) seeds of the variety Arina; test: Wheat assay (plant area and root curliness); type: in vivo; settings: wheat var. Arina seeds in mini-pouches with 5 mL compound solution; twelve days after sowing/application
Experimental: Two bioassays were developed in order to assay the activity of the compounds of the present invention. In the first assay, the activity of the compound was quantified in beans based on its effect on the elongation of the petiole of the second leaf. In the second assay, the compound's effect on the root growth of wheat was determined.
The test compounds were dissolved in small volumes of dimethyl sulfoxide and diluted to the appropriate concentration with water. Wheat (Triticum aestivum) seeds of the variety Arina were sown in mini-pouches (10.5×9.0 cm) containing 5 mL of the appropriate compound solution. The mini pouches were stored at 17° C. for three days to enable the seeds to germinate. Plants were then stored at 5° C. Twelve days after sowing/application, plants were removed from the mini-pouches and scanned. The effect of the compounds was quantified by determining plant (root and shoot) area and curliness of the roots (curliness is an indicator of brassinosteroid-type activity).

Structure (SMILES)	curliness of the roots (indicator of brassinosteroid-type activity)
COC(=O)CCC(=O)Nc1ccc(C#N)cn1 [Compound A1, methyl 4-[(5-cyano-2-pyridyl)amino]-4-oxo-butanoate]	curly root phenotype
N#Cc1ccc(NC(=O)CCC(=O)O)nc1 [Compound A2, 4-[(5-cyano-2-pyridyl)amino]-4-oxo-butanoic acid]	curly root phenotype
O=C(O)CCC(=O)Nc1ccc(C(F)(F)F)cn1 [Compound A19, 4-oxo-4-[[5-(trifluoromethyl)-2-pyridyl]amino]butanoic acid]	curly root phenotype
CCOC(=O)CCC(=O)Nc1ccc(C#N)cn1 [Compound A22, Ethyl 4-[(5-cyano-2-pyridyl)amino]-4-oxo-butanoate]	curly root phenotype
CCOc1cc(NC(=O)CCC(=O)OC)ncc1Cl [Compound A31, Methyl 4-[(5-chloro-4-ethoxy-2-pyridyl)amino]-4-oxo-butanoate]	curly root phenotype
CCOc1cc(NC(=O)CCC(=O)O)ncc1Cl [Compound A32, 4-[(5-chloro-4-ethoxy-2-pyridyl)amino]-4-oxo-butanoic acid]	curly root phenotype
CCOc1cc(NC(=O)CCC(=O)OC)ncc1Br [Compound A38, Methyl 4-[(5-bromo-4-ethoxy-2-pyridyl)amino]-4-oxo-butanoate]	curly root phenotype
CCOc1cc(NC(=O)CCC(=O)O)ncc1Br [Compound A39, 4-[(5-bromo-4-ethoxy-2-pyridyl)amino]-4-oxo-butanoic acid]	curly root phenotype

system: not given; test: not given; settings: not given

Structure (SMILES)	melting point [°C]
COC(=O)CCC(=O)Nc1ccc(C#N)cn1 [Compound A1, methyl 4-[(5-cyano-2-pyridyl)amino]-4-oxo-butanoate]	161 to 164
N#Cc1ccc(NC(=O)CCC(=O)O)nc1 [Compound A2, 4-[(5-cyano-2-pyridyl)amino]-4-oxo-butanoic acid]	220 to 221
N#Cc1cc(I)cnc1NC(=O)CCC(=O)O [Compound A4, 4-[(3-cyano-5-iodo-2-pyridyl)amino]-4-oxo-butanoic acid]	215 to 218
COC(=O)CCC(=O)Nc1ccc(-c2nnn[nH]2)cn1 [Compound A65, Methyl 4-oxo-4-[[5-(1H-tetrazol-5-yl)-2-pyridyl]amino]butanoate]	246 to 248
COC(=O)C(C)(C)CC(=O)Nc1ccc(C#N)cn1 [Compound B1, Methyl 4-[(5-cyano-2-pyridyl)amino]-2,2-dimethyl-4-oxo-butanoate]	129
